In patent US11180475B2, “Crystal form I of a 5-aminopyrazole carboxamide compound as BTK inhibitor” (SinoMab BioScience Limited, priority 2017, dated 2021):

Experiments:
Recombinant Btk = Recombinant Btk (Homo sapiens, UniProt Q06187); test: Kinase activity (BTK) inhibition assay, TR-FRET; type: biochemical; settings: read-out: IC50, inhibitory effect on BTK kinase activity
Method: The inhibitory effects of compound (R)-5-amino-3-(4-((5-chloropyridin-2-yl)oxy)phenyl)-1-(4-cyano-4-azaspiro[2.5]oct-6-yl)-1H-pyrazole-4-carboxamide (I) on BTK kinase activity were tested in an assay based on a time resolved fluorescence resonance energy transfer (TR-FRET) method. Recombinant Btk was pre-incubated with the compound disclosed herein in an assay buffer containing 50 mM Tris pH 7.4, 10 mM MgCl2, 2 mM MnCl2, 0.1 mM EDTA, 1 mM DTT, 20 nM SEB, 0.1% BSA, 0.005% tween-20 at room temperature for 1 hour. The reaction was initiated by the addition of ATP (at the ATP Km concentration) and the peptide substrate (Biotin-[…]-NH2). After incubation at room temperature for 1 hour, an equal volume of stop solution containing 50 mM HEPES pH 7.0, 800 mM KF, 20 mM EDTA, 0.1% BSA, p-Tyr66 antibody linked with Eu cryptate and streptavidin-labeled XL665 was added to stop the reaction. The plate was incubated at room temperature for an additional hour and then the TR-FRET signal was read on a BMG PHERAstar FS instrument (ex337 nm, em 620 nm/665 nm). Based on the ratio of the signal of fluorescence at 615 nm to 665 nm, the residual enzyme activity was calculated with an increased compound concentration. IC50 of each compound was obtained by fitting the data to the four-parameter equation of Graphpad Prism software.

hERG = hERG (Homo sapiens, UniProt Q12809); test: hERG binding assay (Dofetillide method); settings: read-out: IC50 for hERG inhibition
hERG, sequence (Q12809 whole entry): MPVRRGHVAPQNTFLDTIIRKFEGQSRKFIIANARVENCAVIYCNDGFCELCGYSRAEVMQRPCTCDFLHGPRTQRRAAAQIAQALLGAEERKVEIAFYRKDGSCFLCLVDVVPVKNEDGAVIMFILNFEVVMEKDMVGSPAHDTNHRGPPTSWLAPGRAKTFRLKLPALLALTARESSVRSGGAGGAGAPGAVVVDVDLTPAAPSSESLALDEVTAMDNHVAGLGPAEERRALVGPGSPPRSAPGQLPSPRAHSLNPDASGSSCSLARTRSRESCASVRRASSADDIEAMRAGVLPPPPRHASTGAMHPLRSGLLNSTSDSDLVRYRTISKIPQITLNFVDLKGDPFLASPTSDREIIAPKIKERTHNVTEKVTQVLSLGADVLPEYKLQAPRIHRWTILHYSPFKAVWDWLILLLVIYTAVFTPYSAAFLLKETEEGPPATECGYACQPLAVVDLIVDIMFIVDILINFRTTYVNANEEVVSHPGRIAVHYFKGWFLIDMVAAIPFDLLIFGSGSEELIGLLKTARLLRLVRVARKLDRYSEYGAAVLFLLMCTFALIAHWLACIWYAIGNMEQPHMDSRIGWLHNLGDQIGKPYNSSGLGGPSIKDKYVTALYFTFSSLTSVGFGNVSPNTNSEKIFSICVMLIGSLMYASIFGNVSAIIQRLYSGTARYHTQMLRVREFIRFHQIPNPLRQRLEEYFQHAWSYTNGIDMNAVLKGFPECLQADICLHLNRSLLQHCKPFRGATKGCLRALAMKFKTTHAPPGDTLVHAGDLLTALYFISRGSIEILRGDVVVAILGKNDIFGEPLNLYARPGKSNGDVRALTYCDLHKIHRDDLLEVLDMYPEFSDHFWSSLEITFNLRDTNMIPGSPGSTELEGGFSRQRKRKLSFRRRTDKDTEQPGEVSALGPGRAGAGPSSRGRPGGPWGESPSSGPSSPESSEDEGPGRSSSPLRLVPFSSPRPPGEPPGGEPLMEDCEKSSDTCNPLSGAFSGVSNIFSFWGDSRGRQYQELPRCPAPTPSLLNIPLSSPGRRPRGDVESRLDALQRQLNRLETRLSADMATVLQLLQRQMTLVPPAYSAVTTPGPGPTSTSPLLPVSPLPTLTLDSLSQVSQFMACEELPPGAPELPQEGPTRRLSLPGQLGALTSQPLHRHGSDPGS
Text: The IC50 value of a compound for hERG inhibition can be determined according to the method described in the patent application US20050214870 A1.

[1] = test system: diffuse large B-cell lymphoma cell line TMD-8; test: Pharmacodynamic assay, TMD-8 xenograft; type: in vivo; settings: NOD.SCID mice, p.o. daily for 21 days
Method: Severe immunodeficiency NOD.SCID mice were purchased from Beijing Vital River Laboratory Animal Technology Co., Ltd., and were housed in SPF grade animal room. After TMD-8 cells were cultured to the sufficient amount, the cells were collected by centrifugation and washed twice with PBS. Finally, the cells were resuspended in serum-free RPMI 1640 medium and Matrigel (1:1 v/v). 0.2 ml of cell suspension was injected subcutaneously on the right flank of each mouse using 1 ml syringe and 25G syringe needle. The tumor size was measured with a caliper after about one week post injection. The tumor volume was calculated according to the following formula: tumor volume=(length×width^2)/2. When the tumor volume reached about 100-200 mm^3, the mice were grouped and p.o. administered daily for 21 days.

T cells = test: T cell inhibition assay (CD69, flow cytometry); type: cell-based; settings: Homo sapiens, 1 hour exposure, washed, anti-CD3/CD28 beads 18 hours, read-out: IC50, inhibitory activity on T cells
Method: T cells were obtained by purification of healthy donor blood through negative selections using the RosetteSep Human T Cell Enrichment Mix. Cells were plated in a growth medium (10% RPMI+10% fetal bovine serum) and the inhibitor was added at specified concentrations. After incubating for 1 hour at 37° C., the cells were washed three times, and each wash was used for 10-fold dilution in the growth medium. The cells were then stimulated with anti-CD3/CD28 coated beads (bead/cell ratio 1:1) for 18 hours at 37° C. Cells were subsequently stained with an anti-CD69-PE antibody and analyzed by flow cytometry using standard conditions. According to the above experimental methods, compound (R)-5-amino-3-(4-((5-chloropyridin-2-yl)oxy)phenyl)-1-(4-cyano-4-azaspiro[2.5]oct-6-yl)-1H-pyrazole-4-carboxamide (I) has very low or no inhibitory activity on T cells, with an IC50 values higher than 4000 nM.

Pharmacokinetics in rats = type: in vivo; settings: rat, plasma, oral; male SD rats, p.o. 10 mg/kg vs i.v. 2 mg/kg
Method: 1. Male SD rats (HFK) were acclimatized in the laboratory for 7 days after arrival.
2. […], 3 animals in each group. One group was dosed by oral gavage (p.o.), and the other group was dosed by tail vein injection (i.v.). Rats in the p.o. group were fasted overnight before drug administration.
3. After drug administration, blood samples were collected from the rats via the posterior orbital venous plexus approach at the following time points: I.V.: (before drug administration), 0.08 hours, 0.25 hours, 0.5 hours, 1 hour, 2 hours, 4 hours, 8 hours, 24 hours; P.O.: 0.08 hour, 0.25 hour, 0.5 hour, 1 hour, 2 hours, 4 hours, 8 hours, 24 hours. About 300 μl of blood were collected at each collection time point.
4. The collected blood samples were centrifuged at 12000 rpm for 5 minutes at 4° C., and then the upper plasma samples were collected and stored in a refrigerator at −20° C.
6. […]
The pharmacokinetic parameters were calculated using the pharmacokinetic professional software WinNonlin [Model: Phoenix™ WinNonlin® 6.1; Manufacturer: Pharsight Corporation]. […]

[2] = Stability study in liver microsomes; type: in vitro ADME, human, dog, rat, and mouse; settings: 60 minutes incubation, 37° C., liver microsomes of various species
Method: 1. Compound (R)-5-amino-3-(4-((5-chloropyridin-2-yl)oxy)phenyl)-1-(4-cyano-4-azaspiro[2.5]oct-6-yl)-1H-pyrazole-4-carboxamide (I) was dissolved in acetonitrile to prepare a stock solution having a concentration of 0.5 mM.
2. 2 μL of stock solution was added to a 1.5 ml centrifuge tube, and then 148 μL of phosphate buffer (100 mM, pH 7.4) and 10 μL of liver microsome suspension (the protein concentration was 20 mg/ml) [BD Gentest] were added. The liver microsomes were derived from the species of human, dog, rat, and mouse; The control group was added with 158 μL of phosphate buffer (100 mM, pH 7.4).
3. The mixture obtained in step 2 was pre-incubated in a 37° C. water bath for 3 minutes; then 40 μL of NADPH generating system (containing NADP+: 6.5 mM, glucose 6-phosphate: 16.5 mM, MgCl2: 16.5 mM, glucose 6-phosphate dehydrogenase: 2 U/ml) was added to initiate the reaction. The reaction system was incubated in a 37° C. water bath for 1 hour.
4. After the reaction was carried out for 1 hour, the centrifuge tube was removed from the water bath, and the reaction was terminated by adding 400 μL of acetonitrile, followed by vortexing for 3 minutes. […]
6. After 60 minutes of incubation, the percentage of remaining drug in the incubation system was calculated as follows: Remaining Drug (%)=Cr/C0×100%

[3] = test system: five CYP450 enzymes in human liver microsomes; test: Inhibition of CYP enzymes, cocktail probe substrates; type: in vitro ADME; settings: CYP1A2, CYP2D6, CYP2C9, CYP2C19, CYP3A4
Method: METHOD: This experiment simultaneously determined the inhibitory effects of a compound on five CYP450 enzymes in human liver microsomes using the cocktail probe substrates approach. The human microsomes were from BD Gentest.
The reaction was carried out in 100 mM of phosphate buffer, with a total volume of 200 μL. The concentration of microsomes in the reaction system was 0.25 mg/mL, and the concentration of the test compound was 20 μM, 6.67 μM, 2.22 μM, 0.74 μM, and 0.25 μM. The specific probe substrates and concentration were phenacetin (CYP1A2) 40 μM, dextromethorphan (CYP2D6) 5 μM, diclofenac (CYP2C9) 10 μM, S-mephenytoin (CYP2C19) 40 μM, testosterone (CYP3A4) 80 μM, respectively. The mixture was pre-incubated in a 37° C. thermostatic shaker for 5 minutes, and the NADPH-generating system (containing 1.3 mM NADP+, 3.3 mM glucose 6-phosphate, […] glucose 6-phosphate dehydrogenase, 3.3 mM MgCl2) was added to start the reaction. After incubation for 45 minutes, the reaction was stopped by adding an equal volume of acetonitrile. The tube was vortexed and centrifuged at 13,000 rpm. The resulting supernatant was subjected to LC-MS-MS to determine the amount of produced metabolites. […] The final result of this experiment is the calculated half inhibitory concentration IC50 value.

[4] = test system: B cells in human whole blood; test: Inhibition assay on human whole blood B cells (CD69); type: cell-based; settings: B-cell, anti-human IgM F(ab')2 stimulation 20 hours, read-out: IC50, inhibitory activity on B cells in human whole blood
Method: Human whole blood (hWB) was obtained from healthy volunteers and blood was collected by venipuncture into a heparin sodium-anticoagulant Vacutainer tube. Test compounds were diluted 10 times in PBS to the required initial drug concentration), followed by three-fold serial dilutions with 10% DMSO in PBS to obtain a 9-point dose response curve. 5.5 μL of each diluted compound was added to the aiil 96-well V-bottom plate in duplicate; 5.5 μL of 10% DMSO in PBS was added to control and non-stimulated wells. Human whole blood (100 μL) was added to each well, and after mixing, the plates were incubated for 30 minutes at 37° C. and in 5% CO2, 100% humidity. An anti-human IgM F(ab′)2 (Southern Biotech) (10 μL of 500 μg/mL solution, 50 μg/mL final concentration) was added to each well (except for non-stimulated wells) with vortexing, and the plate was further incubated for another 20 hours. After 20-hour incubation, samples were incubated with 20 μL of fluorescent probe-labeled APC mouse anti-human CD69 (BD Pharmingen) for 30 minutes at 37° C., 5% CO2, 100% humidity. Induced controls, unstained, and single-stained samples were included for compensation and initial voltage settings. […] Results were initially analyzed using FACS analysis software (Flow Jo). The IC50 values were then calculated using XLfit v3, Equation 201.

normal human B cells = test: B cell inhibition assay (CD69, flow cytometry); type: cell-based; settings: 1 hour exposure, washed off, IgM F(ab')2 stimulation 18 hours, read-out: IC50, inhibitory activity on B cells
Method: Temporary exposure to a BTK inhibitor in vitro is sufficient to inhibit B cell activation in normal human B cells.
B cells were obtained by purification from healthy donor blood through negative selection using the RosetteSep human B Cell Enrichment Mix. Cells were plated in a growth medium (10% RPMI+10% fetal bovine serum) and the inhibitor was added at specified concentrations. After incubation at 37° C. for 1 hour, the cells were washed three times, and each wash was used for 8-fold dilution in the growth medium. The cells were then stimulated with 10 μg/mL IgM F(ab′)2 at 37° C. for 18 hours. Cells were subsequently stained with an anti-CD69-PE antibody and analyzed by flow cytometry using standard conditions.

Recombinant Btk, sequence (Q06187 whole entry): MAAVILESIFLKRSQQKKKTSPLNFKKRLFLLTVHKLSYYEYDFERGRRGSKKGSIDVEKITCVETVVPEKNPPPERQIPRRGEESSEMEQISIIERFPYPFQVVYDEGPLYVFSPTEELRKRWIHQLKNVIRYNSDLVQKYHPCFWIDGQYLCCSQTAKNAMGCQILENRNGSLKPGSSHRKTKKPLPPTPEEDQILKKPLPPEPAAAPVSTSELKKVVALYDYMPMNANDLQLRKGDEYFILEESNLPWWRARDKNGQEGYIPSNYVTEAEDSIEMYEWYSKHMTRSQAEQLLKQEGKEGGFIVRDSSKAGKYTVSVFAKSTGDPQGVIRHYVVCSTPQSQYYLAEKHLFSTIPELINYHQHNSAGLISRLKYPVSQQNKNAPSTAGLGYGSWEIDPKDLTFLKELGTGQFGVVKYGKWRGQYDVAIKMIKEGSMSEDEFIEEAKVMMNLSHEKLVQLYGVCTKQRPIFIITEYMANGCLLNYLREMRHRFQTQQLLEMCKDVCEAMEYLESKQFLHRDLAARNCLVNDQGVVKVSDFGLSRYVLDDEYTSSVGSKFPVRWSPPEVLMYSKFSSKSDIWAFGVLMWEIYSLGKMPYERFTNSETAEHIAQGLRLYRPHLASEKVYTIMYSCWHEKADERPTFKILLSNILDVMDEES

What does the source list for `N#CN1C[C@H](n2nc(-c3ccc(Oc4ccc(Cl)cn4)cc3)c(C(N)=O)c2N)CCC12CC2` [Compound I, (R)-5-amino-3-(4-((5-chloropyridin-2-yl)oxy)phenyl)-1-(4-cyano-4-azaspiro[2.5]oct-6-yl)-1H-pyrazole-4-carboxamide]?
IC50 (Recombinant Btk): < 100 nM; IC50 (hERG): > 1000 nM; inhibition of TMD-8 tumor growth in vivo [1]: significantly inhibited the growth; IC50 (T cells): > 4000 nM; bioavailability (Pharmacokinetics in rats): > 40%; Remaining Drug (%), residual percentage in liver microsomes [2]: > 30%; inhibitory effect on various CYP enzymes [3]: very low or no inhibitory effect; IC50 [4]: < 200 nM; IC50 (normal human B cells): < 10 nM
